Columns and labels:
Aspergillus spp. = conditions: compared with itraconazole; U.S. Pat. No. 4,916,134; cited from earlier work
[1] = cited from earlier work
[2] = solubility in water in the absence or presence of 2-hydroxypropyl-β-cyclodextrin (saturated solutions, UV spectrometry); format: physicochemical; conditions: ambient temperature
Method: A 10 ml stock solution comprising 0, 2.5, 5, 7.5, 10, 20, 30 or 40% (weight by volume) 2-hydroxypropyl-β-cyclodextrin (M.S.=0.4) was put in a 20 ml tinted vial. To each vial there was added a quantity of itraconazole or saperconazole sufficient to yield a saturated solution. The vials were sonicated for 10 minutes and all vials were checked to ascertain that an undissolved remnant remained Where all the material had dissolved, another quantity of the material was added The vials were closed and protected from light by wrapping them in aluminum foil. The vials were then shaken in an appropriate apparatus. 24Hours later the vials were checked again to ascertain that an undissolved remnant of the material remained and where necessary a further quantity of the material was added. The vials were shaken for at least 72 hours and then allowed to stand until all undissolved material had precipitated. The vials were opened and the pH of the saturated solutions was measured. An aliquot of the supernatant solution was filtered and the amount of dissolved active ingredient was measured by UV spectrometry (255 nm), if necessary after diluting said aliquot to a concentration suitable for UV spectrometry.

[3] = solubility in artificial gastric juice; format: physicochemical; conditions: ambient temperature
Method: About 10 mg of either product was added to 100 ml artificial gastric juice (0.2 g NaCL+0.7 ml concentrated HCl diluted to 100 ml) at ambient temperature. The mixture was stirred and a sample was taken from each solution at regular intervals. The amount of dissolved active ingredient was determined following the procedure described in the previous example.

[4] = 2-hydroxypropyl-β-cyclodextrin concentration 2.5%
[5] = 2-hydroxypropyl-β-cyclodextrin concentration 5%
[6] = 2-hydroxypropyl-β-cyclodextrin concentration 7.5%
[7] = 2-hydroxypropyl-β-cyclodextrin concentration 10%
[8] = 2-hydroxypropyl-β-cyclodextrin concentration 20%
[9] = 2-hydroxypropyl-β-cyclodextrin concentration 30%
[10] = 2-hydroxypropyl-β-cyclodextrin concentration 40%

Molecule	solubility in water [1]	concentration in water [2, 4] [mg/100 ml]	concentration in water [2, 5] [mg/100 ml]	concentration in water [2, 6] [mg/100 ml]	concentration in water [2, 7] [mg/100 ml]	concentration in water [2, 8] [mg/100 ml]	concentration in water [2, 9] [mg/100 ml]	concentration in water [2, 10] [mg/100 ml]	concentration of dissolved active ingredient ([3]; 1 h.) [mg/100 ml]	concentration of dissolved active ingredient ([3]; 2 h.) [mg/100 ml]	concentration of dissolved active ingredient ([3]; 3 h.) [mg/100 ml]	concentration of dissolved active ingredient ([3]; 4 h.) [mg/100 ml]	concentration of dissolved active ingredient ([3]; 6 h.) [mg/100 ml]	concentration of dissolved active ingredient ([3]; 26 h.) [mg/100 ml]	concentration of dissolved active ingredient ([3]; 46 h.) [mg/100 ml]	concentration of dissolved active ingredient ([3]; 51 h.) [mg/100 ml]	concentration of dissolved active ingredient ([3]; 69 h.) [mg/100 ml]	also measured
CCC(C)n1ncn(-c2ccc(N3CCN(c4ccc(OCC5COC(Cn6cncn6)(c6ccc(F)cc6F)O5)cc4)CC3)cc2)c1=O (racemic) [saperconazole, (±)-cis-4-[4-[4-[4-[[2-(2,4-difluorophenyl)-2-(1H-2,4-triazol-1-yl-methyl)-1,3-dioxolan-4-yl]methoxylphenyl]-1-piperazinyl]-phenyl]-2,4-dihydro-2-(1-methylpropyl)-3H-1,2,4-triazol-3-one]	only very sparingly soluble in water																	activity against Aspergillus spp. (Aspergillus spp.): improved activity against Aspergillus spp.
CCC(C)n1ncn(-c2ccc(N3CCN(c4ccc(OCC5COC(Cn6cncn6)(c6ccc(Cl)cc6Cl)O5)cc4)CC3)cc2)c1=O (racemic) [itraconazole, (±)-cis-4-[4-[4-[4-[[2-(2,4-dichlorophenyl)-2-(1H-1,2,4-triazol-1-ylmethyl)-1,3-dioxolan-4-yl]methoxy]phenyl]-1-piperazinylphenyl]-2,4-dihydro-2-(1-methyl-propyl)-3H-1,2,4-triazol-3-one]	only very sparingly soluble in water	0.36	1.79	4.74	10.28	50	95	174	0.023	0.079	0.15	0.19	0.27	0.40	0.40	0.41	0.45	
(+)-[2S-[2α, 4α, 4(R)]1-4-[4-[4-[4-[[2-(2,4-dichlor triazol-1-ylmethyl)-1,3-dioxolan-4-yl]methoxy]phenyl]-1-piperazinyl]phenyl]-2,4-dihydro-2-(1-methylpropyl)-3H-1,2,4-triazol-3-one [Compound 3]									0.32	0.69	1.09	1.41	1.94	3.93	5.08	5.39	6.36	concentration of dissolved active ingredient ([3]; 5 min.): 0.005 mg/100 ml; concentration of dissolved active ingredient ([3]; 15 min.): 0.037 mg/100 ml; concentration of dissolved active ingredient ([3]; 30 min.): 0.15 mg/100 ml
(+)-[2R-[2α,4α, 4(R)]]-4-[4-[4-[4[[dichlorophenyl)-2-(1H-1,2,4-triazol-1-ylmethyl)-1,3-dioxolan-4-yl]methoxy]phenyl]-1-piperazinyl]phenyl]-2,4-dihydro-2-(1-methylpropyl)-3H-1,2,4-triazol-3-one [Compound 4]		2.43	15.84	41.70	83.72	481	1166	2017										
(−)-[2S-[2α, 4α, 4(S)[[-4-[4-[4-[4-[[2-(2,4-dichlorophenyl-2(1H-1,2,4-triazol-1-ylmethyl)-1,3-dioxolan-4-yl]methoxy]phenyl]-1-piperazinyl]phenyl ]-2,4-dihydro-2-(1-methylpropyl)-3H-1,2,4-triazol-3-one [Compound 2]		3.58	16.36	41.39	78.16	332	846	1720										

Reference: patent US6346518B1, “Itraconazole and saperconazole stereoisomers” (Janssen Pharmaceutica N.V., priority 1995, dated 2002)
